Data set [1] can be described thus: Deoxyribose degradation as a measure of hydroxyl radical formation. Format: biochemical. To be noted: 75 μM test compound; controls < 0.1. On the procedure:
^c Deoxyribose degradation as a measure of hydroxyl radical formation
Indicated values are μmoles of malondialdehyde per mmole of deoxyribos
released by 75 μM test compound (controls < 0.1).
Degradation of deoxyribose provides a measurement of the amount of hydroxyl radical formation caused by the test compounds. The assay used to determine degradation of 2-deoxy-D-ribose followed generally the procedures of Gutteridge, J. M. C., Biochem. J., 224: 761-767 (1984) and Laughton, et al., Biochem. Pharmacol., 38: 2859-2865 (1989). The following reagents were added to glass tubes in the order and at the final concentrations listed. 0.3 mL kH2 PO4 --KOH buffer, pH 7.4 (30 mM), 0.2 ml double distilled H2 O, 0.2 ml 2-deoxy-D-ribose (2 mM), 0.2 ml FeCl3.6H2 O (0.1 mM), 0.1 ml 2-substituted anthracenone ([…]). Stock solutions of each of the 2-substituted anthracenone compounds were made up fresh before use. Appropriate blanks and controls using an acetronitrile vehicle were performed.
Final reaction volumes were standardized to 1.0 ml. The reaction mixtures were incubated for 2 hours at 37° C. in a shaking water bath at 50 rpm. 1 ml of 2.8% (w/v) trichloracetic acid and 1 ml of 1% (w/v in 0.05 N NaOH) 2-thiobarbituric acid (TBA) were added, and the samples were heated at 100° C. for 15 minutes and then cooled in an ice bath (5 minutes). 2 ml of each reaction mixture was treated with 0.05 ml of 36% (w/v) HCl and 2 of 1-butanol, followed by vigorous shaking with a vortex mixer (Heidolph) for 15 seconds. The organic layer was separated by centrifugation at 3000 rpm (15 minutes) and absorbance at 532 nm was measured against butanol. Calibration was performed using a malondialdehyde (MDA) standard prepared by hydrolysis of 1,1,3,3-tetraethoxypropane (Gutteridge, J. M. C., Anal. Biochem., 69: 518-526 (1975). TBA reactive material was expressed in terms of μmol MDA per μmol deoxyribose. The results of the assay are provided in Table I.

Data set [2] in a line: Inhibition of AAPH-induced lipid peroxidation in bovine brain phospholipid liposomes. Format: biochemical. The method, then: Phospholipids were prepared essentially as described by Gutteridge, J. M. C., (Anal. Biochem., 82: 76-82 (1977)). Bovine brain tissue was cooled on ice, freed from blood vessels and washed repeatedly with 0.15 M NaCl, pH 7.4. The tissue was cut into pieces and then macerated with an ultra-turrax, passed through a fine-meshed sieve, and extracted four times with four times the volume of acetone. The extraction mixture was filtered by suction to remove the acetone, the residue dried under vacuum, and then repeatedly extracted with petroleum ether (40-60) using twice the volume of the original brain homogenate. The combined extracts were filtered, dried at 45° C., and dissolved in ether (one fifth the original brain volume). The mixture was treated with five times the volume of acetone, and the resulting precipitate was collected by suction-filtration, dried and stored under N2 at -20° C. in the dark. Bovine brain phospholipids were weighed into glass tubes and shaken in a vortex mixer (Heidolph) in the presence of five small glass beads (.phi. 4 mm) for 1 minute. The phospholipids were suspended in 0.15 M NaCl, pH 7.4, to a final concentration of 5 mg/ml. The mixture was purged with N2 for 1 minute and vigorously dispersed in a vortex mixer for 5 minutes. The liposomes were allowed to swell for 1 hour at 4° C., and vesicles with a mean size of 1-10 μm were obtained according to the method of Bangham, et al., (J. Mol. Biol., 13:238-252 (1965). The liposomes were stimulated with the azo initiator 2 2'-azobis (2-amidinopropane) hydrochloride according to the method of Gutteridge, J. M. C., (Anal. Biochem. 82:76-82 (1977)).
The following reagents were added to the glass tubes containing stimulating bovine brain phospholipid piposomes in the order and at the final concentrations listed: 0.3 ml HK2 PO4 --KOH buffer, pH 7.4 (30 mM), 0.29 ml double distilled H2 O, 0.2 ml liposomes (1 mg/ml), 0.2 ml FeCl3.H2 O (0.1 mM), 0.01 ml 2-substituted anthracenone compound of the invention (variable concentrations).
Appropriate blanks and controls using the vehicle (acetone) were conducted. The final reaction volumes were standardized to 1.0 ml. The reaction mixtures were incubated for 1 hour at 37° C. in a shaking water bath. […] of 20% (w/v) BHT, 0.5 ml 25% (w/v) HCl and 0.5 ml of 1% 2-thiobarbituric acid were added and the samples were heated at 100° C. for 15 minutes and then cooled in an ice bath (5 minutes). 2 ml of 1-butanol were added and the mixtures were vigorously shaken in a vortex mixer (Heidolph) for 15 seconds. The organic layer was separated by centrifugation at 3000 rpm (15 minutes) and absorbance at 532 nm was measured against butanol.

Data set [3] has as its target T1, 5-LO in bovine PMNL (Bos taurus, UniProt F1MQ78).
T1 construct: The purified PMNLs were suspended at a concentration of; endogenous in cells; host or cells: polymorphonuclear leukocytes isolated from bovine blood
T1 sequence (F1MQ78 1-674): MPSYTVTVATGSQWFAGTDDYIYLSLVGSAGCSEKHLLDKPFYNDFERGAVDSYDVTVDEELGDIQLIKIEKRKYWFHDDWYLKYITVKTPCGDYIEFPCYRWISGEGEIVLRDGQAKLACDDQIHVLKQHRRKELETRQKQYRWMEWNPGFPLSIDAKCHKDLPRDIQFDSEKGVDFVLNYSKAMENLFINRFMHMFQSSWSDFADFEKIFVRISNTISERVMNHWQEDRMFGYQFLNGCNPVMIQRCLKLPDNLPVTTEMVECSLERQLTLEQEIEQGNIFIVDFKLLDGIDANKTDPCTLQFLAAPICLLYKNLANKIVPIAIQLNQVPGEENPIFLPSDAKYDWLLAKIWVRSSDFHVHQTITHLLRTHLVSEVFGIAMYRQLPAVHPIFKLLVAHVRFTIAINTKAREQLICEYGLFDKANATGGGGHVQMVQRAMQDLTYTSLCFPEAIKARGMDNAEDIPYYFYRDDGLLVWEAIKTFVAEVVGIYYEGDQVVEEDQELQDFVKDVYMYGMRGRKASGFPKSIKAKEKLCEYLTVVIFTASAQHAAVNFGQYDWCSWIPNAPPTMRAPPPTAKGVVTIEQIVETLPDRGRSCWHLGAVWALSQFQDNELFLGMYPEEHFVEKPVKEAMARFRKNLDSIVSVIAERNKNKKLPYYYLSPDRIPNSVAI
Briefly: Inhibition of 5-lipoxygenase (5-HETE and LTB4 biosynthesis) in Ca-ionophore-stimulated bovine PMNL. The settings on record: N = 3 or more. Format: cell-based. The method, then:
Briefly, PMNLs were prepared from sodium EDTA-anticoagulated bovine blood, essentially as described by Walstra, P. et al., (Biochem. Biophys. Acta, 795:499-503 (1984)). Contaminating platelets were removed by repeated centrifugations at 100 g for 20 minutes. […] Cell counts were conducted with a Sysmex micro cell counter CC-130. Preincubation was performed with 2.4 ml of the suspension and 10 μl of a DMSO stock solution of test compounds at the desired concentrations in phosphate buffered saline (PBS) or vehicle control (DMSO at final concentration of 0.4%) for 15 minutes at 37° C. in a shaking water bath at 50 rpm. […] The incubation mixture was held on ice bath for 20 minutes and then centrifuged at 4000 g for 5 minutes at 0° C. The supernatant was diluted with 5 ml of water and passed through a prewashed (10 ml of methanol and 5 ml of water, sequentially) octadecylsilane reversed phase cartridge (Baker). The eicosanoids were eluted with 3 ml of methanol, diluted with 3 ml of water and subjected to reversed phase HPLC analysis using a 250×4 mm column packed with Nucleosil C18 (7 μm particles; Bischoff, Leonberg, Germany). The isocratic elution conditions of LTB4 were tetrahydrofuran (THF)/methanol/water/acetic acid (25+30+45+0.1), adjusted to pH 5.5 with concentrated NH3, at a flow rate of 0.9 ml/min (Kontron 420 pump), monitored at 280 nm with a Kontron 735 LC UV detector. 5-HETE was monitored at 232 nm using methanol/water/acetic acid (77+23+0.1), pH 5.5 and a flow rate 1.0 ml/min. Data were recorded on a MacLab data acquisition system (WissTech, Germany) and analysis was performed using the application Peaks on an Apple Macintosh Quadra 700 computer. Integrated areas of the peaks were compared to a PGB2 internal standard and to external standards of authentic samples. Molar absorption coefficients of Samuelsson et al., Borgeat, P. and B. Samuelsson, (Proc. Natl. Acad. Sci. USA, 76:2148-2152 (1979)), were used for making calculations. Inhibition was calculated by a comparison of the mean value of test compound (n=3) with control (n=6-8) activity: (1-test compound/control)×100.
See Walstra, P. et al., Biochem Biophys. Acta, 795:499-503 (1984); and Dannhardt et al. J. Pharm. Pharmacol., 44:419-424 (1992). […] (Schroder, J. M., J. Invest. Dermatol., 87:624-629 (1986); Tanzer, et al., Arch. Pharm. (Weinheim), 324:841-846 (1991)).

Data set [4] has as its system HaCaT cells. Briefly: Antiproliferative activity against HaCaT cells (human keratinocyte cell line). Format: cell-based. To be noted: 48 h, read-out: AA IC50 (antiproliferative activity). On the procedure:
HaCaT cells were grown in Dulbecco's modified Eagle's medium (DMEM, No. 041-11954A, Gibco) supplemented with 10% fetal calf serum, penicillin (100 U/mL), and streptomycin (100 μg/mL) in a humidified incubator containing 8% CO2 at 37° C. Cells (2.5·10^4 /1.1 ml per well) were seeded on 24-well multidishes and grown in DMEM. After 24 hours of growth, the medium was replaced with fresh medium and a test compound (0.1-5 μM) was added from freshly made stock solutions, which were prepared in DMSO and diluted with DMEM. The final concentration of DMSO in the culture medium was 0.2%. Controls were performed using DMSO or medium alone. Forty-eight hours after addition of a test compound to the culture, the medium was removed and each well was rinsed with phosphate-buffered saline (PBS, 100 μL). The cells were then incubated with sterile 0.5% trypsin, 0.2% EDTA in PBS for 20 minutes at 37° C. The detached cells from each well were suspended in DMEM and dispersed as single cells by gentle pipetting through an Eppendorf pipette. Cell growth was determined directly by counting the keratinocytes on a Neubauer counting chamber using phase contrast microscopy. Inhibition of cell proliferation was calculated by a comparison of the mean value of the test compound (N=3) with the control (N=6-8) activity: (1-test compound/control)×100.

The mark [5] stands for this setting: AAPH-induced, bovine brain phospholipid liposomes, N = 3 or more, read-out: LPO IC50 (inhibition of lipid peroxidation).

Where two headings read alike, the source gives them in different places.

The results in this text go back to patent US5922891A, “2-substituted 1,8-dihydroxy-9(10H)-anthracenone pharmaceuticals” (priority 1997, dated 1999).

A word on the IC50: it is the concentration that gives 50% inhibition.

Turning to `CN(O)C(=O)CCc1ccc2c(c1O)C(=O)c1c(O)cccc1C2` [IID, N-Hydroxy-N-methyl-3-(9,10-dihydro-1,8-dihydroxy-9-oxo-2-anthracene)propionamide], the “DD (deoxyribose degradation, malondialdehyde released)” value (“DD” below) in data set [1] is 0.92 ± 0.03 μmol of MDA/mmol. Besides, in data set [2] (setting [5]), the half-maximal inhibitory concentration (IC50) came to 11 µM.
For the compound `COC(=O)CCCc1ccc2c(c1O)C(=O)c1c(O)cccc1C2` [IIIB, Methyl 4-(9,10-Dihydro-1,8-dihydroxy-9-oxo-2-anthracene) butanoate], the IC50 in data set [3] is more than 30 µM; in data set [4], 1.1 µM.
For `CN(O)C(=O)CCCc1ccc2c(c1O)C(=O)c1c(O)cccc1C2` [IIID, N-Hydroxy-N-methyl-4-(9,10-dihydro-1,8-dihydroxy-9-oxo-2-anthracene)butanamide], the “DD” value in data set [1] was 1.50 ± 0.02 μmol of MDA/mmol. Further, the IC50 in data set [2] (setting [5]) amounted to 37 µM.
As to `COC(=O)C(Cc1ccccc1)c1ccc2c(c1O)C(=O)c1c(O)cccc1C2` (centres unmarked) [IXB, Methyl 2-(9,10-Dihydro-1,8-dihydroxy-9-oxo-2-anthracene)-3-phenylpropionate], the results for the IC50 in data set [3] and in data set [4] were more than 30 µM and 1.8 µM, respectively. Moreover, the “DD” value in data set [1] was 0.01 ± 0.00 μmol of MDA/mmol.
Turning to `COc1c(OC)c(OC(C)=O)c2cc(Cl)ccc2c1OC(C)=O` [Ionapalene, reference compound], the IC50 in data set [3] was 0.5 µM; in data set [4] it was 3.2 µM.
On to `CC(Cc1ccc(O)c(O)c1)C(C)Cc1ccc(O)c(O)c1` (centres unmarked) [Nordihydroguaiaretic acid (NDGA), Nordihydroguaiaretic acid, reference compound], for which the half-inhibitory concentration (IC50) in data set [2] (NDGA used as the standard, footnote d, read-out: LPO IC50 of the standard) was 2 µM.
Compound `O=C(O)CCCCCc1ccc2c(c1O)C(=O)c1c(O)cccc1C2` [VA, 6-(9,10-Dihydro-1,8-dihydroxy-9-oxo-2-anthracene) hexanoic acid] gave an IC50 in data set [3] of 19 µM. In data set [1], the “DD” value is reported as 2.29 ± 0.03 μmol of MDA/mmol.
On to `COC(=O)C(CCc1ccccc1)c1ccc2c(c1O)C(=O)c1c(O)cccc1C2` (centres unmarked) [XB, Methyl 2-(9,10-Dihydro-1,8-dihydroxy-9-oxo-2-anthracene)-4-phenylbutanoate], for which, in data set [3], the IC50 is more than 30 µM. Besides, the “DD” value in data set [1] is given as 0.28 ± 0.03 μmol of MDA/mmol.
With `COC(=O)c1ccc(Cc2ccc3c(c2O)C(=O)c2c(O)cccc2C3)cc1` [XIB, Methyl 4-[(9,10-Dihydro-1,8-dihydroxy-9-oxo-2-anthracene)methyl]benzoate, reference compound], the IC50 in data set [3] is more than 30 µM.
Regarding `COC(=O)c1ccc(C(=O)c2ccc3c(c2O)C(=O)c2c(O)cccc2C3)cc1` [XIIB, Methyl 4-[(9,10-Dihydro-1,8-dihydroxy-9-oxo-2-anthracene)oxomethyl]benzoate], the IC50 in data set [3] was more than 30 µM; in data set [4], 1.8 µM. Also, the “DD” value in data set [1] is recorded as 2.07 ± 0.12 μmol of MDA/mmol.
